Measured values from patent publication US4695589A, “Alpha-(aminoalkyl-4-hydroxy-3-(alkylthio)benzenemethanols” (Sterling Drug Inc., priority 1983, dated 1987).
Counter-ions that a name gives are not always drawn. Like-named read-outs stand apart in the source and are kept apart here.

Key:
[1] = tested on: isolated rabbit ear artery; assay: Vasodilator activity, isolated rabbit ear artery perfusion pressure; conditions: Oryctolagus cuniculus, read-out: Rabbit Ear Artery vasodilation (percentage reduction in perfusion pressure); for inhibition at 50 µM: 5 × 10^-5 M; for inhibition at 10 µM: 1 × 10^-5 M; for inhibition at 20 µM: 2 × 10^-5 M
From the text: (§1) Vasodilator activity was judged on the basis of observed reduction in perfusion pressure in the hind limb vasculature of the anesthetized dog determined according to the procedure described by Jandhyala et al., European J. Pharm. 17, 357 (1972), and also on the basis of percent reduction in perfusion pressure as measured in the isolated rabbit ear artery according to the method described by De LaLande et al., Aust. J. Exp. Biol. Med. Sci. 43, 639 (1965).
^d Vasodilation is expressed as the percentage reduction in perfusion
pressure from the control level at the indicated molar dose.

[2] = tested on: heart rate increase elicited by isoproterenol in the pentobarbitalized dog; assay: β-adrenergic blocking activity in the pentobarbitalized dog; type: in vivo; conditions: for ED50 / inhibition at 1 mg/kg / inhibition at 0.1 mg/kg: Canis lupus familiaris; for ED50 / Adrenergic Activity Dog β-blockade AED50: approximate intravenous dose causing 50% inhibition of isoproterenol-elicited heart rate increase; for ED50: read-out: Adrenergic Activity Dog β-blockade AED50; for inhibition at 1 mg/kg: 1.0 mg./kg. intravenous; for inhibition at 1 mg/kg / inhibition at 0.1 mg/kg: read-out: Actual percentage inhibition of heart rate increase above control level at the indicated dose; for inhibition at 0.1 mg/kg: 0.1 mg./kg. intravenous
Protocol: The β-adrenergic blocking activity was determined in the pentobarbitalized dog as judged by the ability of the test compound to inhibit the elevation is heart rate elicited by a 0.5 mcg./kg. i.v. injection of isoproterenol.
^e AED50 = approximate intravenous dose required to cause 50%
inhibition of the heart rate increase elicited by isoproterenol in the
^h Actual percentage inhibition of heart rate increase above control
level observed at the indicated dose.

[3] = tested on: unanesthetized spontaneous hypertensive rat; assay: Antihypertensive activity, single oral medication in the spontaneous hypertensive rat (SH Rat); type: in vivo; conditions: for ED (40 mm Hg): Rattus norvegicus, single oral dose required to induce a 40 mm average reduction in systolic blood pressure, read-out: Antihypertensive Activity SH Rat AHD40 mg./kg. P.O.; for Actual reduction in blood pressure observed at the indicated dose: SH rat; for lower blood pressure: at 50 mg./kg.
Protocol: Antihypertensive activity was determined on the basis of the observed reduction in systolic blood pressure measured according to the method of H. Kersten et al., J. Lab. and Clin. Med. 32, 1090 (1947) following a single oral medication in the unanesthetized spontaneous hypertensive rat described by Okamato et al., Japan Circulation J. 27, 282 (1963).
^a AHD40 = single oral dose required to induce a 40 mm average
reduction in systolic blood pressure in the unanesthetized spontaneous
^f Actual reduction in blood pressure (in mm Hg) observed at the […]

[4] = tested on: hind limb vasculature of the anesthetized dog; assay: Vasodilator activity, dog-leg perfusion; type: in vivo; conditions: approximate intraarterial dose causing 50% reduction in perfusion pressure in hind limb; for ED50: Canis lupus familiaris, read-out: Vasodilator Activity Dog-Leg Perfusion AED50
From the text: as §1
^c AED50 =approximate intraarterial dose required to cause a 50%
reduction in perfusion pressure in the hind limb of the anesthetized dog.

[5] = tested on: ouabain-induced arrhythmia in dogs; assay: Ouabain-induced arrhythmia conversion
Protocol: The latter was determined in vivo and efficacy was judged on the ability of the test compound to convert to normal rhythm the arrhythmia induced by barium ion or ouabain intoxication.
Adult mongrel dogs of either sex, after fasting for 16 to 20 hours, were anesthetized with 35 mg./kg. Na-pentobarbital i.v. and tied supine on an operating table. A patent airway was provided by inserting an endotracheal cannula, and the animal respired spontaneously. A femoral vein was double cannulated with one cannula for injection and the other as a site for ouabain infusion. The ipsilateral femoral artery was cannulated for blood pressure measurement. Na-pentobarbital supplements were given i.v. as needed.
Statham P23A blood pressure transducers were used to measure blood pressure, and electrocardiograms (lead II or V1) were taken with monopolar pin electrodes. Both parameters were printed out on a Grass polygraph. Each dog was given 36 mcg./kg. ouabain i.v. over 1 minute (the solution contained 50 mcg./ml. ouabain in isotonic saline) followed by a constant ouabain infusion (0.6 mcg./kg./min.) starting 5 minutes later. The infusion solution was prepared so that the appropriate dose per minute was delivered in 0.5 ml. […]
All ECG interval and duration measurements were made on lead II with a chart speed of 100 mm./sec. […] Blood pressure was measured using a sensitivity of 10 mm. […]

[6] = tested on: unanesthetized trained renal hypertensive dog; assay: Antihypertensive activity, repeated oral medication in the renal hypertensive dog; type: in vivo; conditions: for minimal effective dose: Canis lupus familiaris, minimum repeated oral daily dose for sustained lowering of blood pressure of 10% or greater, tid, read-out: Antihypertensive Activity Renal Hypertensive Dog MED10 mg./kg. tid
From the text: Antihypertensive activity was also judged on the basis of sustained reduction of blood pressure observed in the unanesthetized trained renal hypertensive dog following repeated oral medication according to the procedure described by Lape et al., Arch. Int. Pharmacodyn. 160, 342 (1966).
^b MED10 = minimum repeated oral daily dose required to effect a
sustained lowering of blood pressure of 10% or greater in the
unanesthetized trained renal hypertensive dog.
^g Actual precentage reduction in blood pressure observed at the […]

[7] = tested on: histamine-induced bronchoconstriction in the dog; assay: Block of histamine-induced bronchoconstriction in the dog (β-adrenergic stimulant activity); type: in vivo

Work on `CC(=O)O.CSc1cc(C(O)CNC(C)(C)CCc2ccccc2)ccc1O` (stereo not drawn) [Example 28, α-{[(1,1-dimethyl-3-phenylpropyl)amino]methyl}-4-hydroxy-3-(methylthio)benzenemethanol acetate salt] yielded an inhibition at 50 µM [1] of 70%, an ED50 ([2]; iv) of less than 1 mg/kg and an inhibition at 1 mg/kg [2] of 100%. For the same compound, the ED (40 mm Hg) [3] was roughly 10 mg/kg and the ED50 [4] was 0.5 mg/kg.
`COc1ccc(CCC(C)NCC(O)c2ccc(O)c(SC)c2)cc1` (single isomer, unassigned) [Example 13A] was tested, and the ED50 ([2]; iv) was greater than 0.1 mg/kg, the inhibition at 0.1 mg/kg [2] was 14% and the ED50 [4] was 0.5 mg/kg.
`COc1cc(CCNCC(O)c2ccc(O)c(SC)c2)cc(OC)c1OC` (stereo not drawn) [Example 51, 4-hydroxy-3-(methylthio)-α-<{[2-(3,4,5-trimethoxyphenyl)ethylamino}methyl>benzenemethanol hydrochloride] was tested, and the “toxic dose in the ouabain test” value ([5]; anesthetized dog) was 2.5×10^-5 Mg/kg and the “activity in the ouabain test” value ([5]; below 2.5×10^-5 Mg/kg.) was “inactive”.
In the case of `COc1ccc(CCC(C)NCC(O)c2ccc(OC)c(SC)c2)cc1` (stereo not drawn) [Ref Cpd II, 4-methoxy-α-<{[3-(4-methoxyphenyl)-1-methylpropyl]amino}methyl>-3-(methylthio)benzenemethanol hydrochloride, reference compound], the ED50 ([2]; iv) is reported as 0.07 mg/kg, the ED (40 mm Hg) [3] is reported as greater than 50 mg/kg and the “Actual reduction in blood pressure observed at the indicated dose” value (“Actual reduction” below) ([3]; 50.0 mg./kg. P.O.) is reported as -24 mm Hg. The lower blood pressure [3] was 24 mm.
`COc1ccc(CCC(C)NCC(O)c2ccc(OC(=O)c3ccccc3)c(SC)c2)cc1` (stereo not drawn) [Example 15A, 4-hydroxy-α-<{[3-(4-methoxyphenyl)-1-methylpropyl]amino}methyl>-3-(methylthio)benzenemethanol 4-benzoate acetate salt] was tested, and the ED (40 mm Hg) [3] was greater than 50 mg/kg and the “Actual reduction” value ([3]; 50.0 mg./kg. P.O.) was -10 mm Hg.
For `COc1ccc(CCCC(C)NCC(O)c2ccc(O)c(SC)c2)cc1` (stereo not drawn) [Example 36, 4-hydroxy-α-<{[4-(4-methoxyphenyl)1-methylbutyl]amino}methyl>-3-(methylthio)benzenemethanol acetate salt], the ED (40 mm Hg) [3] was greater than 50 mg/kg and the “Actual reduction” value ([3]; 50.0 mg./kg. P.O.) was -17 mm Hg.
For `COc1ccc(CCC(C)NCC(O)c2ccc(O)c(SC)c2)cc1` (stereo not drawn) [Example 12C, 4-hydroxy-α<{[3-(4-methoxyphenyl)-1-methylpropyl]amino}methyl>-3-(methylthio)benzenemethanol acetate salt], the “Adrenergic Activity Dog β-blockade AED50” value ([2]; acetate salt) was roughly 0.10 mg/kg.
With `COc1ccc(CC(C)NC(C)C(O)c2ccc(O)c(SC)c2)cc1` (stereo not drawn) [Example 24, 4-hydroxy-α-<{[2-(4-methoxyphenyl)-1-methylethyl]amino}ethyl>-3-(methylthio)benzenemethanol acetate salt] the ED (40 mm Hg) [3] was greater than 20 mg/kg and the “Actual reduction” value ([3]; 20.0 mg./kg. P.O.) was -23 mm Hg.
Compound `CC(=O)O.CSc1cc(C(O)CNC(C)(C)Cc2ccccc2)ccc1O` (stereo not drawn) [Example 20, α-{[(1,1-dimethyl-2-phenylethyl)amino]methyl}-4-hydroxy-3-(methylthio)benzenemethanol acetate salt] has an inhibition at 10 µM [1] of 71%, an inhibition at 1 mg/kg [2] of 56% and an ED50 [2] of less than 1 mg/kg. It also gave an ED (40 mm Hg) [3] of roughly 50 mg/kg and an ED50 [4] of 0.5 mg/kg.
In the case of `COc1ccc(CC(C)NCC(O)c2ccc(O)c(SC)c2)cc1` (stereo not drawn) [Example 3, 4-hydroxy-α-<{[2-(4-methoxyphenyl)-1-methylethyl]amino}methyl>-3-(methylthio)benzenemethanol acetate salt], the inhibition at 20 µM [1] is reported as 56%, the ED50 [2] is reported as 0.1 mg/kg and the ED (40 mm Hg) [3] is reported as 20 mg/kg. It also gave an ED50 [4] of 0.5 mg/kg.
`COc1ccc(CCC(C)NCC(O)c2ccc(O)c(SC)c2)cc1` (single isomer, unassigned) [Example 13B] was tested, and the “Adrenergic Activity Dog β-blockade AED50” value [2] was 0.1 mg/kg and the “Vasodilator Activity Dog-Leg Perfusion AED50” value [4] was 0.5 mg/kg.
In the case of `COc1ccc(CCC(C)NCC(O)c2ccc(SC)c(O)c2)cc1` (stereo not drawn) [Ref Cpd I, 3-hydroxy-α-<{[3-(4-methoxyphenyl)-1-methylpropyl]amino}methyl>-4-(methylthio)benzenemethanol acetate salt, reference compound], the ED (40 mm Hg) [3] is reported as greater than 50 mg/kg, the “Actual reduction” value ([3]; 50.0 mg./kg. P.O.) is reported as -20 mm Hg and the lower blood pressure [3] is reported as 20 mm.
Compound `CSc1cc(C(O)CNC(C)Cc2ccccc2)ccc1O` (stereo not drawn) [Example 22, 4-hydroxy-α-{[(1-methyl-3-phenylethyl)amino]methyl}-3-(methylthio)benzenemethanol acetate salt] has an inhibition at 20 µM [1] of 33%, an inhibition at 1 mg/kg [2] of 60% and an ED50 [2] of less than 1 mg/kg. It also gave an ED (40 mm Hg) [3] of 35 mg/kg and an ED50 [4] of 0.5 mg/kg.
`COc1ccc(CCC(C)(C)NCC(O)c2ccc(O)c(SC)c2)cc1` (stereo not drawn) [Example 30, α-<{[1,1-dimethyl-3-(4-methoxyphenyl)propyl]amino}methyl>-4-hydroxy-3-(methylthio)benzenemethanol acetate salt] gave an inhibition at 90 µM ([1]; 9 × 10^-5 M) of 50%, an ED50 ([2]; iv) of less than 1 mg/kg and an inhibition at 1 mg/kg [2] of 72%. It also gave an ED (40 mm Hg) [3] of 20 mg/kg, a minimal effective dose [6] of 0.5 mg/kg and an ED50 [4] of 0.5 mg/kg.
In the case of `COc1ccc(CC(C)NCC(O)c2ccc(OC(C)=O)c(SC)c2)cc1` (stereo not drawn) [Example 2, 4-hydroxy-α-<{[2-(4-methoxyphenyl-1-methylethyl]amino}methyl>-3-(methylthio)benzenemethanol 4-aceetate hydrochloride], the inhibition at 10 µM [1] is reported as 50%, the inhibition at 1 mg/kg [2] is reported as 60% and the ED50 [2] is reported as less than 1 mg/kg. The ED (40 mm Hg) [3] was 10 mg/kg, the β-adrenergic stimulant activity [7] was “ability to block histamine-induced bronchoconstriction” and the ED50 [4] was 0.5 mg/kg.
`CSc1cc(C(O)CNC(C)CCc2ccccc2)ccc1O` (stereo not drawn) [Example 32, 4-hydroxy-α-{[(1-methyl-3-phenylpropyl)amino]methyl}-3-methylthio)benzenemethanol acetate salt] was tested, and the inhibition at 50 µM [1] was 81%, the ED50 ([2]; iv) was 0.1 mg/kg and the ED (40 mm Hg) [3] was 5 mg/kg. For the same compound, the ED50 [4] was 0.5 mg/kg.
`COc1ccc(CCC(C)NCC(O)c2ccc(O)c(SC)c2)cc1` (stereo not drawn) [Example 5, 4-hydroxy-α-<{[3-(4-methoxyphenyl)-1-methylpropyl]amino}methyl>-3-(methylthio)benzenemethanol acetate salt] showed an inhibition at 100 µM ([1]; 1 × 10^-4 M) of 55%, an ED50 ([2]; iv) of 0.1 mg/kg and an ED (40 mm Hg) [3] of 15 mg/kg. The lowers blood pressure ([3]; at a dose of 15 mg./kg.) was 40 mm, the “potency relative to the reference compounds” value ([3]; at less than one-third the dose of Reference Compounds I and II) was “twice as potent” and the minimal effective dose [6] was greater than 2.5 mg/kg. The “Actual percentage reduction in blood pressure observed at the indicated dose” value ([6]; renal hypertensive dog, 2.5 mg./kg. tid) was 0% and the ED50 [4] was 0.5 mg/kg.
In the case of `CSc1cc(C(O)CNC(C)CCc2ccc(O)cc2)ccc1O` (single isomer, unassigned) [Example 40B, 4-hydroxy-α-<{[3-(4-hydroxyphenyl)-1-methylpropyl]amino}-methyl>-3-(methylthio)benzenemethanol cyclohexanesulfamate], the ED50 ([2]; iv) is reported as 0.1 mg/kg, the ED (40 mm Hg) [3] is reported as greater than 50 mg/kg and the “Actual reduction” value ([3]; 50.0 mg./kg. P.O.) is reported as -9 mm Hg.
In the case of `COc1ccc(CCC(C)NCC(O)c2ccc(O)c(SC)c2)cc1` (stereo not drawn) [Example 12B, 4-hydroxy-α-<{[3-(4-methoxyphenyl)-1-methylpropyl]amino}methyl>3-(methylthio)benzenemethanol acetate salt], the inhibition at 0.1 mg/kg [2] is reported as 45% and the “Adrenergic Activity Dog β-blockade AED50” value ([2]; acetate salt) is reported as greater than 0.1 mg/kg.
